Test results taken from patent US9023805B2, “Increasing cancer patient survival time by administration of dithio-containing compounds” (BioNumerik Pharmaceuticals, Inc., priority 2010, dated 2015).
“Also recorded” adds a separate entry of the source.

Assays:
[1] = molecular target: T1, Glutathione-S-Transferase (GST) (Homo sapiens, UniProt P09488); assay: GST assay: conjugation of reduced glutathione to 1-chloro-2,4-dinitrobenzene (CDNB); assay type: biochemical; conditions: read-out: Percent Inhibition
T1 construct: purchased
T1 sequence (P09488 2-218 limits assumed): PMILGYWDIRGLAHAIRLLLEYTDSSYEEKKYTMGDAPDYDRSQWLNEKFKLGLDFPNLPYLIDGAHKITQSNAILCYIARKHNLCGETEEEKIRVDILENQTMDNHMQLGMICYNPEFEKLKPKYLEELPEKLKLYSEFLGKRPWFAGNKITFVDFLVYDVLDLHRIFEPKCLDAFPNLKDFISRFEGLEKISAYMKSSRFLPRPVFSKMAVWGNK
Experimental: An in vitro assay for GST has been developed and reported. See, Meyer, D. J. and Ketterer, B., Purification of soluble human glutathione S-transferases. Methods Enzymol. 252:53-65 (1995). This assay monitors the conjugation of reduced glutathione to 1-chloro-2,4-dinitrobenzene (CDNB), as illustrated in Reaction Scheme II, below.
Reduced thiol forms a conjugate with CDNB (extinction coefficient=9600 M^−1 cm^−1), which is detected at 340 nm. […] A typical 1 mL assay was set up by mixing 500 μl NaHPO4 buffer (200 mM, pH 6.5), 20 μL GSH (50 mM), 20 μL CDNB (50 mM), and 458 μL sterile water. Reactions were incubated at 20° C. in the cuvette holder of the spectrophotometer for approximately 5 min. prior to initiating the assay with the addition of enzyme (ml−1 isotype of GST; activity >100 U/mg). The enzyme stock purchased from the vendor was diluted 1:100 in 200 mM NaHPO4 buffer (pH 6.5), and 2 μL of the diluted enzyme was added to initiate the reaction. The final amount of enzyme added to the assay was typically 0.002 U. Assays were run at 20° C. in 1 mL quartz cuvettes (Hellma Scientific). Slopes were measured in the linear range of the assay (i.e., typically between 5 to 10 min.). […] Final reaction volumes were fixed at 1 mL by adjusting the amount of water added.
a. […]
Raw data was obtained on a Cary 100 spectrophotometer. […] No absorbance values were collected during the process of enzyme addition. […] It was during this time that reaction rates (i.e., slopes of change in absorbance with time) were measured using the Cary 100 software. […] Absorbance and time values during the end phase of the reaction were not used in slope calculations because the reaction was effectively over at this point as the reaction no longer followed the classical Michaelis-Menton model for enzyme kinetics. Completion of the reaction on the Cary software could be detected visually by overlaying a straight line beginning at the addition of enzyme and extending past the end phase of the assay curve. […]

[2] = tested on: coupled thioredoxin (TX)/thioredoxin reductase (TXR) system; assay: NADPH oxidation, thioredoxin reductase + thioredoxin; assay type: biochemical, bovine; conditions: for NADPH Oxidation, Thioredoxin Reductase + Thioredoxin: Disulfide 0.5 mM, minimum of triplicate assays
Experimental: (§1) The activity of TXR and TX was determined by following NADPH oxidation at 340 nm according to the previously reported method. See, Luthman, M., and Holmgren, A. Rat liver thioredoxin and thioredoxin reductase: purification and characterization. Biochemistry 21:6628-6633 (1982). A typical assay mixture contained TR buffer (50 mM potassium phosphate, pH 7.0, 1 mM EDTA), […] NADPH, 1.6 μg bovine TX, and one or more of the following: 4.8 μM TXR, 86 μM insulin, and one of the disulfides described herein. All disulfides were added to reactions as 10× solutions in TR buffer. The total volume of each reaction was 0.1 mL. Reactions were initiated by the addition of TX and were incubated at 25° C. for 40 min. The activity was calculated using a 4 min. linear portion of each reaction. Enzyme assays were carried out using either a Molecular Devices SpectraMaxPlus UV plate reader or a Varian Cary 100 UV-visible Spectrophotometer.
Data was then collected and plotted in Microsoft Excel. Error calculations, and graphical representations were performed in Microsoft Excel and Kaleidograph (ver. 3.5). Nonlinear data was graphically rendered using Kaleidograph. ANOVA and other statistical analyses were performed using SAS (ver. 8.2). Unless otherwise noted, significance level was set at 0.05, and error bars represent actual experimental standard deviation.

[3] = tested on: coupled thioredoxin (TX)/thioredoxin reductase (TXR) system; assay: TX/TXR catalyzed reduction of the insulin A-B chain disulfide; assay type: biochemical, bovine
Experimental: as §1

[4] = molecular target: T2, glutathione reductase (GR) (Homo sapiens, UniProt P00390); assay: NADPH oxidation, GR; assay type: biochemical
T2 sequence (P00390 44-522): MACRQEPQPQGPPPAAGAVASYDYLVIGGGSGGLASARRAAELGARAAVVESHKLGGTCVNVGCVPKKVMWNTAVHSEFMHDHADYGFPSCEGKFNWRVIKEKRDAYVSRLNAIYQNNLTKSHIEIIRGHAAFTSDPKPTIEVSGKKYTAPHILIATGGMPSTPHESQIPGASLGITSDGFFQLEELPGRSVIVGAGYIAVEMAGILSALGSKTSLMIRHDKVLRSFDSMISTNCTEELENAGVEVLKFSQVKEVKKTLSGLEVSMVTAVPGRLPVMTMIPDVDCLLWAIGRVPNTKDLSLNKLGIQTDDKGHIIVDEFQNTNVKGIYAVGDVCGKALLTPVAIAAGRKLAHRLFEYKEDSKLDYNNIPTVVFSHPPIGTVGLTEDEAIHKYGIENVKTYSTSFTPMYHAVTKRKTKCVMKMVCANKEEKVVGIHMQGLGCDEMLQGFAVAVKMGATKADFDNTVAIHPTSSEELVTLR
Experimental: (§2) The Formula (I) compound was utilized at a concentration of 0.5 mM.

[5] = molecular target: T3, coupled glutaredoxin (GRX)/glutathione (GSH)/glutathione reductase (GR) system (Homo sapiens, UniProt P35754); assay: NADPH oxidation, GR + GRX + GSH; assay type: biochemical; conditions: in the presence of reduced glutathione and glutathione reductase
T3 sequence (P35754 2-106 limits assumed): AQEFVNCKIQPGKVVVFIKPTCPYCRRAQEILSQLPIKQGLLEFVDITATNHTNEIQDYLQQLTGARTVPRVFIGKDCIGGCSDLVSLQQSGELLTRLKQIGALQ
Experimental: as §2

[6] = tested on: patients with advanced non-small cell lung carcinoma (NSCLC), including the adenocarcinoma sub-type; assay: Japan Phase III Clinical Trial; assay type: in vivo, human
Experimental: (§3) Darbepoetin alfa (200 μg; subcutaneous administration) was administered on day one of the chemotherapy cycle and pegfilgrastim (6 mg subcutaneous administration) was administered on day two of the chemotherapy cycle if the patient's hemoglobin levels were ≦11 g/dL. The aforementioned chemotherapy cycle was repeated every two weeks, for up to a total of six cycles.
Patients admitted into the trial included those patients without previous treatment (excluding surgical treatment, administration of Picibanil into the serous membrane, irradiation of 30% or less hematopoietic bone, or oral chemotherapeutic agents within 3 months of entry in the trial).
The Japan Phase III Clinical Trial was conducted as a double-blind study because peripheral neuropathy is diagnosed based on subjective symptoms evaluated through clinical interviews, lab tests, and the like. Accordingly, evaluations by both physicians and patients are highly important. […] A placebo was used as control since there is no established therapy or drug for preventing peripheral neuropathy. Because the severity of peripheral neuropathy is evaluated based on patient's reports (i.e., subjective symptoms), the Peripheral Neuropathy Questionnaire (PNQ©) was used in primary evaluation. CIPN-20 and NCI-CTC were used in secondary evaluation. The incidence and severity of adverse reactions, time to their onset, etc. and the like, were compared between patients treated with Tavocept™ and those given a placebo using the aforementioned methods.

[7] = tested on: patients with advanced, Stage IIIB/IV, non-small cell lung carcinoma (NSCLC), including the adenocarcinoma sub-type; assay: U.S. Phase II NSCLC Clinical Trial; assay type: in vivo, human
Experimental: as §3

whole cells = assay: Whole cell mediated disulfide reduction; assay type: cell-based; conditions: mesna in combination with cisplatin
[8] = Tavocept™ and chemotherapy vs chemotherapy and placebo
[9] = Grade 3 and Grade 4 treatment-related adverse events, Tavocept™ arm versus non-Tavocept™ arm, FIG. 15

O=S(=O)([O-])CCSSCCS(=O)(=O)[O-].[Na+].[Na+] [Tavocept™, disodium 2,2′-dithio-bis-ethane sulfonate]
inhibition at 1100 µM [1]: 5.6%
inhibition at 3300 µM [1]: 39%
inhibition at 10000 µM [1]: 66.4%
oxidation of reduced thioredoxin to oxidized thioredoxin [2]: drives the oxidation
substrate (alternative substrate inhibitor) for thioredoxin / the coupled thioredoxin/thioredoxin reductase/NADPH system [2]: substrate; also recorded: most likely a substrate for TX
NADPH Oxidation, Thioredoxin Reductase + Thioredoxin [2]: 13.1 ± 0.2 nmol/min/mL
NADPH oxidation by TXR in the presence of TX ([2]; FIG. 17): concentration-dependent increase
Km ([2]; read-out: Km as substrate for the coupled thioredoxin/thioredoxin reductase system): 72 µM
inhibition of TX/TXR catalyzed reduction of the insulin A-B chain disulfide bond [3]: inhibits
Km ([3]; read-out: Km for inhibition of thioredoxin/thioredoxin reductase catalyzed reduction of the insulin A-B chain disulfide): 3600 µM
substrate for glutathione reductase [4]: not a substrate
substrate-like / alternative substrate inhibitor activity with glutaredoxin (coupled GRX/GSH/GR system) [5]: substrate-like activity
chemotherapy-induced kidney damage [6, 8]: medically-important reductions
chemotherapy-induced vomiting/emesis [6, 8]: medically-important reductions
patients with Grade 3 (severe) decrease in red blood cell ([6]; Tavocept™ arm, FIG. 7): 1 patients
Response Rate, as measured by physicians ([6]; Tavocept™ arm, FIG. 8 "Doctor"): 41.9%
reduction in severe (Grade D or E) peripheral neuropathy (PNQ) ([6]; paclitaxel/Tavocept™/cisplatin vs paclitaxel/saline placebo/cisplatin, FIG. 5, GEE P-Value 0.1565 (FIG. 6)): ~50%
anorexia ([6]; vs placebo regimen, p=0.0029): reductions
fatigue ([6]; vs placebo regimen, p=0.0163): reductions
nausea/vomiting ([6]; vs placebo regimen, p=0.0240): reductions
diarrhea ([6]; vs placebo regimen, p=0.0859): reductions
insomnia ([6]; vs placebo regimen, p=0.1108): reductions
constipation ([6]; vs placebo regimen, p=0.1114): reductions
hazard ratio, adenocarcinoma ([7]; FIG. 14): 0.601
reduction in dehydration [7, 9]: 50%
reduction in hypomagnesaemia [7, 9]: 100%
reduction in nausea [7, 9]: 38.5%
reduction in vomiting [7, 9]: 71.5%
hazard ratio ([7]; NSCLC, FIG. 12): 0.750
increase in patient survival, adenocarcinoma ([7]; Tavocept™ arm versus non-Tavocept™ arm, FIG. 14): 6.54 month
increase in patient survival, adenocarcinoma ([7]; Tavocept™ arm versus non-Tavocept™ arm, FIG. 14, listed as Tavocept): ~6.5 month

NC(CCSSCCS(=O)(=O)O)C(=O)O (centres unmarked) [BNP7768]
substrate (alternative substrate inhibitor) for thioredoxin / the coupled thioredoxin/thioredoxin reductase/NADPH system [2]: substrates
NADPH Oxidation, Thioredoxin Reductase + Thioredoxin [2]: 8.6 ± 0.06 nmol/min/mL

N[C@@H](CCC(=O)N[C@@H](CSSCCS(=O)(=O)O)C(=O)NCC(=O)O)C(=O)O [BNP7772]
substrate (alternative substrate inhibitor) for thioredoxin / the coupled thioredoxin/thioredoxin reductase/NADPH system [2]: substrates
NADPH Oxidation, Thioredoxin Reductase + Thioredoxin [2]: 14.1 ± 0.1 nmol/min/mL
substrate for glutathione reductase [4]: alternative substrate inhibitor

NC(CSSCCS(=O)(=O)O)C(=O)O (centres unmarked) [BNP7766]
substrate (alternative substrate inhibitor) for thioredoxin / the coupled thioredoxin/thioredoxin reductase/NADPH system [2]: substrates
NADPH Oxidation, Thioredoxin Reductase + Thioredoxin [2]: 14.4 ± 0.2 nmol/min/mL

O=S(=O)([O-])CCS.[Na+] [mesna, 2-mercapto ethane sulfonate sodium]
reduction of hydroxyethyldisulfide (GRX substrate) by whole cells (whole cells): enhanced
reduction of α-lipoic acid (TX/TXR substrate) by whole cells (whole cells): enhanced

NC(CCC(=O)NC(CSSCCS(=O)(=O)O)C(=O)O)C(=O)O (centres unmarked) [BNP7774]
substrate (alternative substrate inhibitor) for thioredoxin / the coupled thioredoxin/thioredoxin reductase/NADPH system [2]: substrates
NADPH Oxidation, Thioredoxin Reductase + Thioredoxin [2]: 9.6 ± 0.2 nmol/min/mL

N[C@@H](CSSCCS(=O)(=O)O)C(=O)NCC(=O)O [BNP7776]
substrate (alternative substrate inhibitor) for thioredoxin / the coupled thioredoxin/thioredoxin reductase/NADPH system [2]: substrates
NADPH Oxidation, Thioredoxin Reductase + Thioredoxin [2]: 15.8 ± 0.3 nmol/min/mL
